The record followed here is PMC10178848, “Modulating fast skeletal muscle contraction protects skeletal muscle in animal models of Duchenne muscular dystrophy” (The Journal of Clinical Investigation, 2023).

This test deals with psoas S1 (fast skeletal muscle myosin). Nature of the test: Stopped-flow analysis of Pi release from myosin. The note with it: preincubation with myosin 30 minutes prior to actin. More on the design: dose or concentration left out as unconfirmed. It is filed as biochemical, rabbit. On the procedure:
The rate of Pi release from myosin with actin utilized a fluorescent phosphate binding protein, as described previously ([63]). Experiments were performed in 10 mM MOPS, pH 7.0; 5 mM KCL; 1 mM EGTA; 1 mM DTT; 0.5 mM MgCl2. ATP and ADP were removed by incubation with apyrase ([64]). Prior to mixing with 1 mM ATP in a stopped flow device, compound was incubated with 6 μM psoas S1 at 25°C for 30 minutes.

Regarding `Cc1ccc(S(=O)(=O)NCc2ccccc2)cc1` [BTS, N-benzyl-p-toluene sulfonamide, reference compound], the “rate of Pi release from myosin with actin” value was “decreased the rate of Pi release”.
